Laboratory results from PMC9993459, “A novel selective spleen tyrosine kinase inhibitor SKI-O-703 (cevidoplenib) ameliorates lupus nephritis and serum-induced arthritis in murine models” (Clinical and Experimental Immunology, 2022).

Legend:
NZB/W F1 mice = assay: NZB/W mouse model of SLE / lupus nephritis, oral dosing; assay type: in vivo
Experimental: NZB/W female mice aged 18 weeks were assigned to four groups by distributing mice by body weight and anti-dsDNA IgG titer equivalently across the groups. Each group of mice was administered orally with 42 mg per kg body weight (mpk) of SKI-O-703 dissolved in 50 mM citric acid, 84 mpk of SKI-O-703, 30 mpk of tofacitinib (Selleckchem) dissolved in 0.5% carboxymethyl cellulose (Sigma Aldrich) containing 0.025% Tween 20, or a mixture of the two vehicles. The drugs were given once daily up to 34 weeks of age. Body weight was measured every 2 weeks and serum was collected every 4 weeks. At the termination of the experiments (34 weeks of age), serum, urine, spleen, BM, and kidneys were removed post mortem and assayed by histopathological and biochemical methods as below. Levels of blood urea nitrogen (BUN) and creatinine were measured by Knotus (Incheon, Korea).
Kidneys removed from the NZB/W mice were fixed in 4% paraformaldehyde, embedded in paraffin, sectioned at 3 μm thickness, and stained with periodic acid-Schiff (PAS) and hematoxylin (Sigma Aldrich). […] Glomerular size was measured using Image J software. To assess the glomerular size and hypercellularity of each mouse, more than 20 glomeruli per mouse were individually examined and averaged.
Kidneys and spleens of NZB/W mice were embedded in OCT compound (Sakura Finetek, Torrance, CA, USA) and snap-frozen in liquid nitrogen. Frozen sections were fixed in acetone and blocked with 10% normal donkey serum (Sigma Aldrich). Kidney sections were stained with a 1:200 dilution of anti-IgG-biotin (Sigma Aldrich), anti-IgM-biotin (Southern Biotech) and anti-C3-biotin (Bioss), followed by reaction with 1:200-dilution of streptavidin-cy3 (Invitrogen). Spleen sections were stained with anti-GL7-FITC, anti-CD4-APC, and anti-IgD-PE (all from BD Biosciences or eBioscience). Fluorescence images were acquired using a TCS SP5 confocal microscope (Leica). The area of GCs composed with GL7^+ cells per image was calculated using ImageJ software (NIH, Bethesda, MD, USA).
Titers of anti-dsDNA IgG Ab were measured by ELISA, as described previously. In brief, sera were diluted 1/10 000 to 1/50 000 in PBS and applied to immunosorbent plates (Nunc) precoated with 5 μg/ml poly-L-lysine and 5 μg/ml thymic DNA (Sigma Aldrich). The serum containing the highest titer of anti-dsDNA IgG was serially diluted and used as standard. The plates were incubated with anti-mouse IgG-biotin (Sigma Aldrich) and streptavidin-HRP (BD Biosciences). The concentration of albumin in urine was measured by quantitative ELISA using a mouse albumin ELISA kit (Bethyl), according to the manufacturer’s instructions. The concentration of serum B-cell activating factor of the TNF family (BAFF) was quantitated using a BAFF/BLys/TNFSF13B ELISA Kit (R&D Systems).
Single-cell suspensions of spleen and LN cells were prepared as previously described. Joint tissues from hind paws of KSTA mice were dissected free of soft tissue and bones, digested with 100 μg/ml Liberase (Roche) for 45 min at 37 °C, and filtered through a 70-μm-pore cell strainer (SPL Life Sciences) to prepare single cell suspensions of synovial infiltrates. The single cell suspensions were stained with an appropriate combination of mAbs and analyzed by FACS. The mAbs used were: CD138-PE, B220-PerCP or -APC-cy7, FAS-PE, CD19-PerCP or -APC, CD21-FITC or -APC, CD43-APC, CD23-PE-cy7, CD8a-PE, CD25-APC-cy7, CXCR5-biotin, GL7-FITC, CD45.2-FITC, CD27-FITC, Ki-67-FITC, Gr-1-FITC, CD4-FITC or -APC-cy7, phospho-Syk-PE, CD11b-PE or -PerCP, PD-1-APC, CD44-APC-cy7, and F4/80-PerCP mAbs (all from BD Biosciences, eBioscience or Biolegend). Streptavidin-PerCP was purchased from BD Biosciences.
Splenic CD19^+ B cells from NZB/W mice were sorted by MACS, and lysed with Trizol reagent (Invitrogen) followed by standard methods of total RNA purification. The RNA was assayed by RT and quantitative PCR as described. […]

[1] = target: T1, phosphorylated Syk (p-Syk) in THP-1 cells (Homo sapiens, UniProt P43405); assay: p-Syk ELISA in IgG-stimulated THP-1 cells (FcγR signal); assay type: cell-based
T1 construct: endogenous in cells; host or cells: Ramos (ATCC), THP-1 (ATCC), human CD14+ monocytes (Lonza)
Experimental: THP-1 and Ramos cell lines and human CD14^+ monocytes were purchased from the American Type Culture Collection (ATCC) and Lonza, respectively. After treatment with Syk inhibitors for 1 h, THP-1 cells and monocytes were stimulated for 15 min with 100 μg/ml human IgG (Invitrogen), and Ramos cells were stimulated with 2 μg/ml anti-human IgM monoclonal Ab (mAb) (Bathyl). Cells were lysed in RIPA buffer containing 1% NP-40, 1% sodium deoxycholate, 0.1% SDS, and a mixture of protease and phosphatase inhibitors (Thermo Scientific). The lysates were assayed by standard immunoblotting methods and ELISA. Primary Abs used for immunoblotting were anti-phospho-Syk ([…]), anti-phospho-Vav (Y174), anti-phospho-PLCγ1 (Y1217) and anti-phospho-BLNK (Y96) Abs (all from Cell Signaling). ELISAs to detect phospho-Syk (Y525/526) were performed according to the manufacturer’s protocol (Cell Signaling).
Ramos cells (A), human primary monocytes (B), and THP cells (C) were pretreated with inhibitors at the indicated concentrations and stimulated with anti-human IgM (A) and human IgG (B and C). […] The relative intensities of protein phosphorylation levels were quantitated with reference to each lane of β-actin control bands. (D) Ramos cells, human primary monocytes, and THP cells were treated as in A–C for 24 h and levels of phosphorylated Syk (p-Syk) were measured by ELISA.

[2] = 84 mpk oral once daily, 18-34 weeks of age
[3] = high dose (84 mpk), 34 weeks, FACS

Compound | Concentrations of BUN and creatinine (NZB/W F1 mice; 42 mpk (low-dose), 34 weeks of age) | Rise of serum anti-dsDNA IgG Ab level (NZB/W F1 mice; 42 mpk oral once daily) | Glomerular IgM and C3 staining intensities (NZB/W F1 mice; 84 mpk (high dose)) | Concentrations of BUN and creatinine (NZB/W F1 mice; 84 mpk (high-dose), 34 weeks of age) | Body weights (NZB/W F1 mice; [2]) | Spleen weights (NZB/W F1 mice; [2]) | Rise of serum anti-dsDNA IgG Ab level (NZB/W F1 mice; 84 mpk oral once daily, P < 0.01 by two-way ANOVA) | Concentration of urinary albumin (NZB/W F1 mice; 84 mpk, 34 weeks of age, vehicle mean 742.9 mg/dl) | Number of splenic T cells (NZB/W F1 mice; [3]) | Total spleen cells (NZB/W F1 mice; [3]) | CXCR5+PD-1+ Tfh cells (NZB/W F1 mice; high dose (84 mpk), spleen) | Splenic follicular, GC B cells and plasma cells (NZB/W F1 mice; high dose (84 mpk), vs vehicle controls) | Level of serum BAFF (NZB/W F1 mice; high dose, ELISA) | BAFF receptor expression in splenic B cells (NZB/W F1 mice; high dose, quantitative RT-PCR) | BM hematopoiesis (NZB/W F1 mice; long-term treatment (16 weeks)) | IC50 [1] [nM]
CS(=O)(=O)O.CS(=O)(=O)O.Cc1nn(-c2ccnc(Nc3ccc4c(c3)c(C(=O)C3CC3)cn4C)n2)cc1CN1C[C@H](O)CO1 [SKI-O-703, (S)-cyclopropyl(5-((4-(4-((4-hydroxyisoxazolidin-2-yl)methyl)-3-methyl-1H-pyrazol-1-yl)pyrimidin-2-yl)amino)-1-methyl-1H-indol-3-yl)methanone dimesylate] | significantly lowered | did not have the same effect, and even temporarily elevated the Ab titer | significantly reduced | significantly lowered | without significantly affecting body weights | significantly reduced spleen weights | dramatically attenuated | markedly reduced | not significantly altered | significantly less numerous | reduced in number | significantly less numerous | also reduced | reduced level | appeared not to interfere with BM hematopoiesis | –
Cc1nn(-c2ccnc(Nc3ccc4c(c3)c(C(=O)C3CC3)cn4C)n2)cc1CN1C[C@H](O)CO1 [SKI-O-592] | – | – | – | – | – | – | – | – | – | – | – | – | – | – | – | 266
